Laboratory results from patent publication US20190307729A1, “ANTIMICROBIAL COMPOUNDS AND METHODS FOR USE THEREOF” (VERSITECH LIMITED, priority 2016, published 2019).

System: B. cepacia
Assay: Pigment formation (virulence suppression)
Type: cell-based, Burkholderia cepacia

## O=C(O)CN1C(=O)C(=Cc2ccc(OCc3ccc(Cl)cc3)cc2)SC1=S [Compound 82]
  pigment formation: repressing the pigment formation
